Reference: publication PMC3663881 (Journal of biomolecular screening, 2013)

Tests used:
RhaS = RhaS (Escherichia coli, UniProt P09377, L201R); assay: EMSA, inhibition of DNA binding by purified protein
RhaR = RhaR (Escherichia coli, UniProt P09378); assay: as above
GB1b-RhaR = target: T1, GB1b-RhaR (UniProt P09378 1-282); assay: EMSA
T1 sequence: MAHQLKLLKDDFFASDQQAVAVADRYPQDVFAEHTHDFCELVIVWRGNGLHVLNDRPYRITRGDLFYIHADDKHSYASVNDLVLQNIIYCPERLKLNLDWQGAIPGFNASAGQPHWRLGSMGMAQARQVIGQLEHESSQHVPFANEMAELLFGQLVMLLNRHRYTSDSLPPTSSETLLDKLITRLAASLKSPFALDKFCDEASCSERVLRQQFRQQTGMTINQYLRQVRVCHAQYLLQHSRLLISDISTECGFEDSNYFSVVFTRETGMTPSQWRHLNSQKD

LacI = LacI (UniProt P03023 1-360); assay: EMSA
LacI, sequence (P03023 whole entry): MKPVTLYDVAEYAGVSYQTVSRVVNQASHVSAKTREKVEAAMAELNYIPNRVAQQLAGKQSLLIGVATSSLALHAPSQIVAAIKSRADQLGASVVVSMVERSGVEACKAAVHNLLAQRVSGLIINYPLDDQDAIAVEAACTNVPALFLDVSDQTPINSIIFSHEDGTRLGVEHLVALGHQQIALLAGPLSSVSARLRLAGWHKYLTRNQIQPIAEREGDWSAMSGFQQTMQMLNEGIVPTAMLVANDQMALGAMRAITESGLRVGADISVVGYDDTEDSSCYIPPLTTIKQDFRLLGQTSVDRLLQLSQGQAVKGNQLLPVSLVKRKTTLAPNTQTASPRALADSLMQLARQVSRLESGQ

RhaS, sequence (P09377 whole entry L201R): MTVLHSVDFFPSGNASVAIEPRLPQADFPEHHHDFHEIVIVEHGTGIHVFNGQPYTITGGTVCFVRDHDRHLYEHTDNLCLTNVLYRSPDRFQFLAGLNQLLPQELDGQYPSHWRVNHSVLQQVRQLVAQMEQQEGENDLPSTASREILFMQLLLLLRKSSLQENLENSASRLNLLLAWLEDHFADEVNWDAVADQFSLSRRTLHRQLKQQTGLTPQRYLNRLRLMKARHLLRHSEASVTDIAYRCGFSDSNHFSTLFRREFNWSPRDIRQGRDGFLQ

Molecule `CCCCN1C=C(c2ccc3ccccc3n2)C(C[N+](=O)[O-])c2ccccc21` (stereo not shown) [OSSL_051168, 1-butyl-4-nitromethyl-3-quinolin-2-yl-4H-quinoline] has an IC50 (RhaS) of about 70 µM and an IC50 (RhaR) of about 140 µM.

B1: RhaR site probe (oligos 3056/3287) (dsDNA)
DNA 1: CGCTGTATCTTGAAAAATCGACGTTTTTTACGTGGTTTTCCGTCGAAAATTTAAGGTAAGAAC
DNA 2: GTTCTTACCTTAAATTTTCGACGGAAAACCACGTAAAAAACGTCGATTTTTCAAGATACAGCG
B1: binds (GB1b-RhaR).

B2: lac O1 probe (IR O1-For/O1-Rev) (dsDNA)
DNA 1: TGTTGTGTGGAATTGTGAGCGGATAACAATTTCACACAGG
DNA 2: CCTGTGTGAAATTGTTATCCGCTCACAATTCCACACAACA
B2: binds (LacI).
